Laboratory results reported in patent US12600723B2, “Tetracyclic compounds as DGK inhibitors” (Incyte Corporation, priority 2022, dated 2026).

How the values were obtained:
DGKα = target: T1, DGKα (Homo sapiens, UniProt P23743); assay: In vitro DGKα inhibition assay (ADP-Glo); type: biochemical; conditions: His-tagged human recombinant DGKα 0.1 nM, 50 μM ATP, 20 μM DLG, 90 minute incubation
T1 construct: His; purchased Signal Chem D21-10BH
Description: (§1) The DGKα and DGKζ biochemical reactions were performed using His-tagged human recombinant enzymes (Signal Chem, DGKα, #D21-10BH; DGKζ, #D30-10H)) and DLG (Dilauroyl-sn-glycerol) lipid substrate (Signal Chem, #D430-59). ADP-Glo assay was performed using ADP-Glom kinase Assay kit (Promega, #V9104). The reactions were carried out in assay buffer containing 40 mM Tris, pH 7.5, 0.1% CHAPS, 0.1% Prionex, 40 mM NaCl, 5 mM MgCl2, 1 mM CaCl2), and 1 mM DTT. DGKα reactions contained 0.1 nM DGKα, 50 μM ATP, and 20 μM DLG. And DGKζ reactions contained 0.4 nM DGKζ, 30 μM ATP, and 20 μM DLG.
(§2) For compound inhibition studies, 40 nL test compound in DMSO was added to wells of white polystyrene plates in 384-well (Greiner, #784075) or 1536-well format (Greiner, #782075). Compounds were added with top concentration of 2 mM with 11 point, 3-fold dilution series. Enzyme solution (contains 2×DGK enzyme concentration in 1× assay buffer) was added to the plate in 2 μL/well volume, followed by 2 μL/well of substrate solution (contains 2× concentration of ATP and DLG substrate in 1× assay buffer). Plates were then centrifuged for 1 min at 1200 RPM and sealed or lidded. For 4 μL reaction volume, test compounds were therefore diluted 100× to final top concentration of 20 μM. After 90 minute incubation, reactions were quenched by addition of 2 μL/well Promega ADP-Glo Reagent, followed by centrifugation and lidding. After 60 min incubation, 2 μL/well Promega Kinase Detection Reagent was added, plates centrifuged, and incubated for 30 min. Plates were then read using Luminescence method on BMG PHERAstar FSX plate reader. Percent inhibition was calculated and IC50s were determined using 4-parameter fit in Genedata Screener. Labcyte Echo acoustic dispenser was used for compound addition, and Formulatrix Tempest liquid handler was used for all reagent dispenses.

DGKζ = target: T2, DGKζ (Homo sapiens, UniProt Q13574); assay: In vitro DGKζ inhibition assay (ADP-Glo); type: biochemical; conditions: His-tagged human recombinant DGKζ 0.4 nM, 30 μM ATP, 20 μM DLG, 90 minute incubation
T2 construct: His; purchased Signal Chem D30-10H
T2 sequence (Q13574 whole entry): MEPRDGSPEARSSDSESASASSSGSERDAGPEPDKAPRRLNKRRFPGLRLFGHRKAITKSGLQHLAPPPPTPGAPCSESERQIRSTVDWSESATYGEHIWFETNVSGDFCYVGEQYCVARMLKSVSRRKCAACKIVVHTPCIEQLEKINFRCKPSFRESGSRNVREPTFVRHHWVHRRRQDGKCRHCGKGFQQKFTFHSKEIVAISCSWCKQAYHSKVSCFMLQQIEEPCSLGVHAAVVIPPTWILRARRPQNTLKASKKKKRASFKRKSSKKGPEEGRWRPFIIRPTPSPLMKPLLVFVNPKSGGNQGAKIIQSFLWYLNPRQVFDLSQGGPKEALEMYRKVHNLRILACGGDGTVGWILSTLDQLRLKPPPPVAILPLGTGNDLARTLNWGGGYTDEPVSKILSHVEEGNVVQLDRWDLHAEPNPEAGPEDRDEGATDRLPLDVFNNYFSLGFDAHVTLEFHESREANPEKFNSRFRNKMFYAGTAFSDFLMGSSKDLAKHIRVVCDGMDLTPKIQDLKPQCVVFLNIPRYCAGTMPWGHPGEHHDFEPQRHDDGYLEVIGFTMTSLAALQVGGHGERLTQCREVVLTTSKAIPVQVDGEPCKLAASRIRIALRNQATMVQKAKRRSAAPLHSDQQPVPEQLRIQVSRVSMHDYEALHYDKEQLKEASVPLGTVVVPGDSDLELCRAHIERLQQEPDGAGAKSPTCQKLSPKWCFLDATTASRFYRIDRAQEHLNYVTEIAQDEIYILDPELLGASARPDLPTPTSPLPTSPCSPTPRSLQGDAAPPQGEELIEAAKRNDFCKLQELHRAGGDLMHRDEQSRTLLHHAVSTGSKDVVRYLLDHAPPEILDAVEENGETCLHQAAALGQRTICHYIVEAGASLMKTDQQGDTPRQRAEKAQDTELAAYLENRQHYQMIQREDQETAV
Description: as §1, §2

T1 sequence (P23743 whole entry): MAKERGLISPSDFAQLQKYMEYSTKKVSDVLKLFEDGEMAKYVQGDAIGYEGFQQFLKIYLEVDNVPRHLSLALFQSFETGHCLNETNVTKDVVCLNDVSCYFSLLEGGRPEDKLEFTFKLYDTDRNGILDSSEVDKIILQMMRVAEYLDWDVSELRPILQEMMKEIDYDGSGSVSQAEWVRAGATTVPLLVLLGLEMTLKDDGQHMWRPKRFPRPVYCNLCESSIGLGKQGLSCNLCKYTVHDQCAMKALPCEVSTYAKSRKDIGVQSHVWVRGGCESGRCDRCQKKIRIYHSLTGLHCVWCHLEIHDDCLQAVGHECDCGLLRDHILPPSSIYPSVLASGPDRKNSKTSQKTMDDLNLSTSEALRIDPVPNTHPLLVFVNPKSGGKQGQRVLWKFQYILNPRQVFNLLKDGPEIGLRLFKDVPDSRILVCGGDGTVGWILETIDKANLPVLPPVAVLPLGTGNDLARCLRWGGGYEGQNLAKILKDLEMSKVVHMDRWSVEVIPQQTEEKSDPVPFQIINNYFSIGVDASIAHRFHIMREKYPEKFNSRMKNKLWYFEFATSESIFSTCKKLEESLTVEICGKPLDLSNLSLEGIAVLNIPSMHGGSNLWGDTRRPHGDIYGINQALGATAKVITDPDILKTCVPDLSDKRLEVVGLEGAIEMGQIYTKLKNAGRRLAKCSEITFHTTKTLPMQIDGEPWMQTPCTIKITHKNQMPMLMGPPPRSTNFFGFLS

SMILES | IC50 (DGKα) | IC50 (DGKζ)
C[C@@H]1CN2c3c(c(=O)n(C)c4ccc(C#N)nc34)N(C)C(=O)[C@H]2CN1C(c1ccc(F)cc1)c1ccc(F)cc1 [Example 1, (8aR,11R)-10-(Bis(4-fluorophenyl)methyl)-5,7,11-trimethyl-6,8-dioxo-5,7,8,8a,9,10,11,12-octahydro-6H-pyrazino[1′,2′:4,5]pyrazino[2,3-c][1,5]naphthyridine-2-carbonitrile] | ≤ 40 nM | 200 to 2000 nM
COCCN1C(=O)[C@H]2CN(C(c3ccc(F)cc3)c3ccc(F)cc3)[C@H](C)CN2c2c1c(=O)n(C)c1ccc(C#N)nc21 [Example 2, (8aR,11R)-10-(Bis(4-fluorophenyl)methyl)-7-(2-methoxyethyl)-5,11-dimethyl-6,8-dioxo-5,7,8,8a,9,10,11,12-octahydro-6H-pyrazino[1′,2′:4,5]pyrazino[2,3-c][1,5]naphthyridine-2-carbonitrile] | 40 to 200 nM | 200 to 2000 nM
C[C@@H]1CN2c3c(c(=O)n(C)c4ccccc34)N(C)C(=O)[C@H]2CN1C(c1ccc(F)cc1)c1ccc(F)cc1 [Example 3, (2R,4aR)-3-(Bis(4-fluorophenyl)methyl)-2,6,8-trimethyl-2,3,4,4a,6,8-hexahydro-1H-pyrazino[1′,2′:4,5]pyrazino[2,3-c]quinoline-5,7-dione] | ≤ 40 nM | > 2000 nM
C[C@@H]1CN2c3c(c(=O)n(C)c4ccc(F)nc34)N(C)C(=O)[C@H]2CN1C(c1ccc(F)cc1)c1ccc(F)cc1 [Example 4, (8aR,11R)-10-(Bis(4-fluorophenyl)methyl)-2-fluoro-5,7,11-trimethyl-5,7,9,10,11,12-hexahydro-6H-pyrazino[1′,2′:4,5]pyrazino[2,3-c][1,5]naphthyridine-6,8(8aH)-dione] | ≤ 40 nM | 200 to 2000 nM
Cc1ccc2c(n1)c1c(c(=O)n2C)N(C)C(=O)[C@H]2CN(C(c3ccc(F)cc3)c3ccc(F)cc3)[C@H](C)CN12 [Example 5, (8aR,11R)-10-(Bis(4-fluorophenyl)methyl)-2,5,7,11-tetramethyl-5,7,9,10,11,12-hexahydro-6H-pyrazino[1′,2′:4,5]pyrazino[2,3-c][1,5]naphthyridine-6,8(8aH)-dione] | ≤ 40 nM | > 2000 nM
C[C@@H]1CN2c3c(c(=O)n(C)c4ccc(CC#N)nc34)N(C)C(=O)[C@H]2CN1C(c1ccc(F)cc1)c1ccc(F)cc1 [Example 6, 2-((8aR,11R)-10-(Bis(4-fluorophenyl)methyl)-5,7,11-trimethyl-6,8-dioxo-5,7,8,8a,9,10,11,12-octahydro-6H-pyrazino[1′,2′:4,5]pyrazino[2,3-c][1,5]naphthyridin-2-yl)acetonitrile] | ≤ 40 nM | ≤ 40 nM
COc1ccc2c(n1)c1c(c(=O)n2C)N(C)C(=O)[C@H]2CN(C(c3ccc(F)cc3)c3ccc(F)cc3)[C@H](C)CN12 [Example 7, (8aR,11R)-10-(Bis(4-fluorophenyl)methyl)-2-methoxy-5,7,11-trimethyl-5,7,9,10,11,12-hexahydro-6H-pyrazino[1′,2′:4,5]pyrazino[2,3-c][1,5]naphthyridine-6,8(8aH)-dione] | ≤ 40 nM | > 2000 nM
C[C@@H]1CN2c3c(c(=O)n(C)c4ccc(-c5cnn(C)c5)nc34)N(C)C(=O)[C@H]2CN1C(c1ccc(F)cc1)c1ccc(F)cc1 [Example 8, (8aR,11R)-10-(Bis(4-fluorophenyl)methyl)-5,7,11-trimethyl-2-(1-methyl-1H-pyrazol-4-yl)-5,7,9,10,11,12-hexahydro-6H-pyrazino[1′,2′:4,5]pyrazino[2,3-c][1,5]naphthyridine-6,8(8aH)-dione] | ≤ 40 nM | > 2000 nM
C[C@@H]1CN2c3c(c(=O)n(C)c4ccc(=O)[nH]c34)N(C)C(=O)[C@H]2CN1C(c1ccc(F)cc1)c1ccc(F)cc1 [Example 9, (8aR,11R)-10-(Bis(4-fluorophenyl)methyl)-5,7,11-trimethyl-5,7,9,10,11,12-hexahydro-1H-pyrazino[1′,2′:4,5]pyrazino[2,3-c][1,5]naphthyridine-2,6,8(8aH)-trione] | ≤ 40 nM | > 2000 nM
